# Measurements taken from patent US20200000798A1, “PROCESS FOR […] ALKALOID FRACTION OF R[…] (HERB.) TRAUB AND USES THEREOF” (UNIVERSIDADE FEDERAL DO RIO GRANDE DO SUL-UFRGS, priority 2013, published 2020).
# Assays:
# [1] = tested on: lymphocytes from draining lymph nodes; assay: Lymphocyte viability test (MTT); format: cell-based; details: 48 hours
# Procedure: A lymphocyte viability test was performed to evaluate the cytotoxicity of montanine using a colorimetric MTT [3-(4,5-dimethylthiazol-2-yl)-2,5-diphenyl tetrazolium bromide] assay, as described by Tomita T. et al. 2006. Animals were euthanized and their draining lymph nodes (popliteal and inguinal) were removed aseptically. A single cell suspension was prepared, grown in triplicate (5×10^5 cells/well in a 96 well plate) and treated with montanine at the dosages (0.01 μM, 0.1 μM, 1 μM, 10 μM and 100 μM) for 48 hours at 37° C. at 5% CO2 in RPMI medium. After incubation, MTT (0.5 mg/ml) was added to each well and the plate was placed in the stove again and after 4 hours the supernatant was removed and 50 μI of dimethyl sulphoxide (DMSO, Sigma) were added. After the plate was shaken to dissolve the MTT formazan crystals, optical density (OD) of each well was measured at 570 nm using a microplate ELISA reader.
# [2] = tested on: collagen type II-induced arthritis in DBA/1J mice; assay: Collagen-induced arthritis (CIA) model with therapeutic treatment; format: in vivo
# Procedure: CIA induction is performed by following the aforementioned protocol.
# After the boost injection, animals were monitored daily for clinical signs of the disease and treatment with montanine at 0.5 and 1.5 mg/kg is started on the day of clinical detection of CIA. Animals given sterile saline, the treatment vehicle, were deemed as the positive control group, i.e. untreated. The drug was administered twice daily for 10 days by the intraperitoneal route.
# Animals were monitored daily for analyzing the clinical signs of arthritis by means of the severity score as follows: 0-no signs of disease; 1-mild erythema and edema; 2-moderate erythema and edema; 3-severe erythema and edema extending from the knee to the metatarsus; 4-severe erythema and edema with loss of function. The total score is the average of the scores on the legs from the onset of the disease.
# Articular hypernociception was assessed as previously described by Pinto LG et al. 2010. For this model, a polypropylene tip was adapted to the manual force transducer, a force was applied on the subplantar surface of the paw producing tibiotarsal bending motion. The automatic pressure meter recorded the strength of the applied force when the paw is removed. The assay is repeated 3 times sequentially to provide a consistent measurement, the limiar being expressed in grams (g).
# The tibio-tarsal joints of DBA/1 J animals were isolated and immersed in 10% buffered formalin for fixation for 24 hours. Then, tissues were decalcified in 10% trichloroacetic acid (TCA) for approximately 18 hours. These tissues were dehydrated and embedded in paraffin blocks. Six pm-thick cuts were arranged on a microscope slide. […] All the cuts were assessed under a microscope by two blinded observers, and the images captured by digital camera.
# synovial fibroblasts = assay: Synovial fibroblast invasion test (matrigel inserts); format: cell-based; details: 1 μM, 24 h, five lines tested, vs DMSO vehicle
# Procedure: To evaluate the invasion of synovial fibroblasts into matrigel inserts (collagen matrix) a BD kit (Franklin Lakes, N.J., USA) was used, and the test was performed in accordance with the manufacturer specifications.
# When cells reached 70-80% confluence, they were trypsinized with trypsin-EDTA for digestion. Then, 2×10^4 cells were resuspended in 500 μI of free culture medium of fetal calf serum and placed on top of the insert. Montanine at a dose of 1 μM or the same concentration of vehicle (DMSO) was added on top of the insert with the cells. At the lower compartment 750 μI of culture medium with 10% fetal bovine serum was added. The plate was incubated at 37° C. for 24 h in a stove with 5% CO2. After the incubation period, the top of the chamber was cleaned with a swab, stained with crystal violet dye, and the total number of cells that invaded the Matrigel membrane was counted in an optical microscope at 100× magnification. Experiments were performed in duplicate.
# lymphocyte migration = details: 100 micrograms/mL, vs placebo; cited from earlier work
# [3] = tested on: lymphocytes from draining lymph nodes; assay: Lymphocyte proliferation assay (MTT), LPS or ConA stimulated; format: cell-based, BALB/c mice; details: 1 μM, 48 h
# Procedure: The in vitro lymphocyte proliferation was performed using the MTT colorimetric assay described by Tomita T et al. 2006. BALB/c mice were euthanized and their draining lymph nodes were removed aseptically. A single cell suspension was prepared, grown in triplicate (5×10^5 cells/well in a 96 well plate) and treated with montanine at the dosages of 1 μM for 48 h at 37° C. at 5% CO2 in RPMI medium containing […] lipopolysaccharide (LPS) or […] of conconavalin A (ConA) or RPMI medium alone as a culture control. After incubation, MTT (0.5 mg/ml) was added to each well and the plate was placed in the stove again and after 4 hours the supernatant was removed and 50 μI of dimethyl sulphoxide (DMSO, Sigma) were added. […] After the plate was shaken to dissolve the formazan crystals, optical density (OD) of each well was measured at 570 nm.
# LPS acts primarily on the B cell receptor and the Toll-like receptor 4 (TLR4), molecules that are present on the surface of B lymphocytes, thus acting on these cells. ConA acts on several receptors containing glycoproteins or lipoproteins, stimulating both lymphocytes both but acting preferably on T lymphocytes.
# healthy mice = assay: Immunosuppression assay in healthy animals (complete blood count); format: in vivo; details: 0.5 or 1.5 mg/kg every 12 hours for 3 days, then 3 days without treatment
# Procedure: An immunosuppression assay in healthy animals was performed to assess the role of montanine as an immunosuppressive agent. 20 male, healthy mice of 8-12 weeks of age were used for examining the whole blood (complete blood count—parameters of: total of white blood cells (WBC); % lymphocytes (Lin %), lymphocytes/mm3 (Lin mm30; % monocytes (Mon %); monocytes/mm3 (Mon mm3); % granulocytes (Gran %); granulocytes/mm3 (Gran/mm3); total of red blood cells (RBC); hemoglobin (HGB) and total of platelets (PLQ)) of animals, which were divided as follows: healthy animals (with no treatment given) (n=4), animals treated with 0.5 or 1.5 mg/kg de montanine/12-12 hours (n=8/group). Whole blood was collected at day 0 for basal analysis of the blood parameters of the complete blood count in all animals, they were then treated for 3 days with the two doses and on the third day blood was collected again for complete blood count analysis; also, animals were still alive for three more days without any treatment for a new blood collection (FIG. 9).
# [4] = tested on: mBSA-induced arthritis in Balb-C mice; assay: Antigen-induced arthritis (AIA) model, mBSA-induced monoarthritis; format: in vivo
# Procedure: Antigen-induced arthritis (AIA) is an animal model of arthritis that is broadly described and used in worldwide literature. One of the inducing antigens in this model in Balb-C mice is methylated bovine serum albumin (mBSA), which, after systemic immunization (subcutaneous injection) is injected into the joint.
# Briefly, mice were immunized in three steps with mBSA (day-0, day-7 and day-14), the first step comprising […] of mBSA protein in an emulsion of 0.1 mL of complete Freund's adjuvant's (CFA) and 0.1 mL of sterile saline solution (0.9% sodium chloride), the second and third steps were performed with the same protein concentration, the same sterile saline solution concentration and the same adjuvant concentration, but in these steps incomplete Freund's adjuvant (IFA) was used; 3 weeks after the first immunization (day 21) mBSA at a concentration of 30 ug/mL were injected into the femorotibial joint (knee) and the contralateral knee was administered with sterile saline only and serves as the control of the experiment (Grespan et al. 2008). […] Treatment with montanine was given twice daily, one day before intra-articular challenge, at the day of the challenge and at day of death, by intraperitoneal route and diluted in saline. Doses tested were 0.3; 1; 3 mg/kg. One group of animals received the treatment vehicle (saline) for control purposes, said group being designated positive control. The experiment is terminated at day 22 (24 hours after challenge and treatment) when animals were euthanized to collect the joint lavage fluid. Lavage was performed using a PBS-EDTA solution and then the number of leukocytes existing in the joint was counted in a Neubauer chamber at a 1:2 dilution with Turk's solution. Furthermore, pain of the animals was assessed in a digital analgesia-meter (von Frey) prior to intra-articular injection at time 0 (zero), 3, 5 and 24 hours after intra-articular challenge.
# [5] = tested on: collagen type II-induced arthritis in DBA/1J mice; assay: Collagen-induced arthritis (CIA) model with prophylactic treatment; format: in vivo
# Procedure: The chronic arthritis model most widely used in the world literature is the model of collagen type II-induced arthritis (CIA). Said model shares many pathological features with the disease, such as type II collagen (CM), the major cartilage protein and one of the potential RA self-antigens. […]
# After the boost injection, treatment at dosages of 0.05; 0,25 and 0.5 mg/kg was started and continued for 15 days (twice daily, intraperitoneally) and animals were monitored daily for clinical signs of the disease.
# Animals were monitored daily for analyzing the clinical signs of arthritis by means of the severity score as follows: 0—no signs of disease; 1—mild erythema and edema; 2—moderate erythema and edema; 3—severe erythema and edema extending from the knee to the metatarsus; 4—severe erythema and edema with loss of function. […]
# The tibio-tarsal joints of DBA/1 J animals were isolated and immersed in 10% buffered formalin for fixation for 24 hours. […] All the cuts were assessed under a microscope by two blinded observers, and the images captured by digital camera.
# [6] = 0.5 mg/kg i.p. twice daily for 10 days
compound,measurement,setting,value
CO[C@H]1C=C2[C@H]3C[N@@](Cc4cc5c(cc43)OCO5)[C@H]2C[C@@H]1O [montanine],lymphocyte viability,"[1]; 0.01 μM, 0.1 μM and 1 μM",did not alter cell viability
same,lymphocyte viability,[1]; 10 μM,"no significant difference between the cell group and the group treated with the montanine at 10 μM, however, decreased cell viability can be seen"
same,lymphocyte viability,[1]; 100 μM,"decreased cell viability can be seen, which was higher in the 100 μM dose"
same,highest dose that did not exhibit any cytotoxic effects on the cells,"[1]; lymphocytes, MTT",1 µM
same,arthritis clinical score,[2]; 0.5 mg/kg i.p. twice daily,reduction of the clinical score from the third day of treatment
same,histological parameters of the joint,[2]; [6],"improved all the histological parameters, except for synovial hyperplasia"
same,pain (articular nociception),[2]; [6],reduced pain
same,invasion of synovial fibroblasts,synovial fibroblasts,reduced the invasion of synovial fibroblasts of the five lines tested
same,anti-inflammatory effect on the lymphocyte migration model,lymphocyte migration,unable to generate a different effect than the placebo
same,lymphocyte proliferation stimulated by ConA,[3]; ConA,significantly decreased
same,lymphocyte proliferation stimulated by LPS,[3]; LPS,had no effect
same,immunosuppression (complete blood count),healthy mice,does not lead to immunosuppression in any of the tested dosages
same,"pain (joint hypernociception), onset of decrease",[4]; 3 mg/kg i.p. twice daily,decrease as of 3 hours
same,"pain (joint hypernociception, von Frey)","[4]; 0.3, 1, 3 mg/kg i.p. twice daily, 0, 3, 5 and 24 hours after intra-articular challenge",reduction in pain at all tested doses
same,total leukocyte migration to the femorotibial joint,"[4]; 0.3, 1, 3 mg/kg i.p., 24 hours after challenge, compared with saline group",significantly reduced at all three doses
same,histological parameters of the joint,[5]; 0.5 mg/kg i.p. twice daily for 15 days,"improved all the histological parameters of the joint, except for synovial hyperplasia"
same,arthritis clinical score,"[5]; 0.25 and 0.5 mg/kg i.p. twice daily, from day 8 of treatment",reduced clinical score
